Read-outs that look alike come from different tables or passages of the source.
Assays:
[1] = tested on: B. subtilis
Experimental: (§1) The MIC assay is a technique used to determine the lowest concentration of a particular antibiotic needed to inhibit visible growth of bacteria. In this method, two fold serial dilutions of the compound were prepared in broth media. An inoculum of overnight bacterial cultures will be prepared in the same broth medium. The serial dilution tubes will be inoculated with 0.025 ml of undiluted over-night culture (1:100), a 1×10-2 dilution (1:10,000), or a 1×10-4 dilution (1:1,000,000) of bacterial suspension. Results were recorded after 24 hour incubation at 35° C. without shaking by measuring OD600. The MIC is determined by the lowest concentration of compound where no growth is visible.

[2] = tested on: E. coli (K12)
Experimental: as §1

[3] = tested on: E. coli (WT)
Experimental: as §1

[4] = tested on: P. aeruginosa 4858
Experimental: as §1

[5] = tested on: P. aeruginosa 4961
Experimental: as §1

[6] = tested on: P. aeruginosa 4990
Experimental: as §1

[7] = tested on: S. aureus (8324-5)
Experimental: as §1

[8] = tested on: S. aureus (Col)
Experimental: as §1

[9] = tested on: Streptococcus pneumoniae; details: Based on SBA agar (not confirmatory)
Experimental: as §1

[10] = tested on: E. coli (K12); remark: listed apart in the source
Experimental: (§2) MBC is the lowest concentration of compound required to kill an organism. […] In the case of small colony variants, growth might not occur earlier than 48 hours.

[11] = tested on: P. aeruginosa 4990; remark: listed apart in the source
Experimental: as §2

COCCCCCCCCCN1C[C@H](O)[C@@H](O)[C@H](O)[C@H]1CO.Cl [UV-4B, hydrochloric acid salt of N-(9-Methoxynonyl)deoxynojirimycin]
MIC ([1]; Table 3): 2500 µg/mL | MIC ([1]; Table 4): 625 µg/mL | growth (OD600) ([1]; Table 4, 0.02 mg/ml): + (+ OD600 <0.05) | growth (OD600) ([1]; Table 4, 0.04 mg/ml): + (+ OD600 <0.05) | growth (OD600) ([1]; Table 4, 0.08 mg/ml): + (+ OD600 <0.05) | growth (OD600) ([1]; Table 4, 0.16 mg/ml): + (+ OD600 <0.05) | growth (OD600) ([1]; Table 4, 0.31 mg/ml): + (+ OD600 <0.05) | growth (OD600) ([1]; Table 4, 0.63 mg/ml): − (− OD600 >0.05) | growth (OD600) ([1]; Table 4, 2.50 mg/ml): − (− OD600 >0.05) | growth (OD600) ([1]; Table 4, 5 mg/ml): − (− OD600 >0.05) | growth (OD600) ([1]; Table 4, 10 mg/ml): − (− OD600 >0.05) | growth (OD600) ([1]; Table 4, 20 mg/ml): − (− OD600 >0.05) | visible growth ([1]; UV-4B 0.02 mg/ml): + | visible growth ([1]; UV-4B 0.04 mg/ml): + | visible growth ([1]; UV-4B 0.08 mg/ml): + | visible growth ([1]; UV-4B 0.16 mg/ml): + | visible growth ([1]; UV-4B 0.31 mg/ml): + | visible growth ([1]; UV-4B 0.63 mg/ml): + | visible growth ([1]; UV-4B 2.50 mg/ml): − | visible growth ([1]; UV-4B 5 mg/ml): − | visible growth ([1]; UV-4B 10 mg/ml): − | MIC ([2]; Table 3): 5000 µg/mL | visible growth ([2]; UV-4B 0.04 mg/ml): + | visible growth ([2]; UV-4B 0.08 mg/ml): + | visible growth ([2]; UV-4B 0.16 mg/ml): + | visible growth ([2]; UV-4B 0.31 mg/ml): + | visible growth ([2]; UV-4B 0.63 mg/ml): + | visible growth ([2]; UV-4B 2.50 mg/ml): + | visible growth ([2]; UV-4B 5 mg/ml): − | visible growth ([2]; UV-4B 10 mg/ml): − | visible growth ([2]; UV-4B 20 mg/ml): − | MIC ([3]; Table 3): 5000 µg/mL | visible growth ([3]; UV-4B 0.02 mg/ml): + | visible growth ([3]; UV-4B 0.04 mg/ml): + | visible growth ([3]; UV-4B 0.08 mg/ml): + | visible growth ([3]; UV-4B 0.16 mg/ml): + | visible growth ([3]; UV-4B 0.31 mg/ml): + | visible growth ([3]; UV-4B 0.63 mg/ml): + | visible growth ([3]; UV-4B 2.50 mg/ml): + | visible growth ([3]; UV-4B 5 mg/ml): − | visible growth ([3]; UV-4B 10 mg/ml): − | MIC ([4]; Table 3): 5000 µg/mL | MIC ([4]; Table 4): 2500 µg/mL | growth (OD600) ([4]; Table 4, 0.02 mg/ml): + (+ OD600 <0.05) | growth (OD600) ([4]; Table 4, 0.04 mg/ml): + (+ OD600 <0.05) | growth (OD600) ([4]; Table 4, 0.08 mg/ml): + (+ OD600 <0.05) | growth (OD600) ([4]; Table 4, 0.16 mg/ml): + (+ OD600 <0.05) | growth (OD600) ([4]; Table 4, 0.31 mg/ml): + (+ OD600 <0.05) | growth (OD600) ([4]; Table 4, 0.63 mg/ml): + (+ OD600 <0.05) | growth (OD600) ([4]; Table 4, 2.50 mg/ml): − (− OD600 >0.05) | growth (OD600) ([4]; Table 4, 5 mg/ml): − (− OD600 >0.05) | growth (OD600) ([4]; Table 4, 10 mg/ml): − (− OD600 >0.05) | growth (OD600) ([4]; Table 4, 20 mg/ml): − (− OD600 >0.05) | visible growth ([4]; UV-4B 0.63 mg/ml): + | visible growth ([4]; UV-4B 2.50 mg/ml): + | visible growth ([4]; UV-4B 5 mg/ml): − | visible growth ([4]; UV-4B 10 mg/ml): − | visible growth ([4]; UV-4B 20 mg/ml): − | MIC ([5]; Table 3): 5000 µg/mL | visible growth ([5]; UV-4B 0.04 mg/ml): + | visible growth ([5]; UV-4B 0.08 mg/ml): + | visible growth ([5]; UV-4B 0.16 mg/ml): + | visible growth ([5]; UV-4B 0.31 mg/ml): + | visible growth ([5]; UV-4B 0.63 mg/ml): + | visible growth ([5]; UV-4B 2.50 mg/ml): + | visible growth ([5]; UV-4B 5 mg/ml): − | visible growth ([5]; UV-4B 10 mg/ml): − | visible growth ([5]; UV-4B 20 mg/ml): − | MIC ([6]; Table 3): 5000 µg/mL | visible growth ([6]; UV-4B 0.04 mg/ml): + | visible growth ([6]; UV-4B 0.08 mg/ml): + | visible growth ([6]; UV-4B 0.16 mg/ml): + | visible growth ([6]; UV-4B 0.31 mg/ml): + | visible growth ([6]; UV-4B 0.63 mg/ml): + | visible growth ([6]; UV-4B 2.50 mg/ml): + | visible growth ([6]; UV-4B 5 mg/ml): − | visible growth ([6]; UV-4B 10 mg/ml): − | visible growth ([6]; UV-4B 20 mg/ml): − | MIC ([7]; Table 3, two independent tests): 2500 µg/mL | MIC ([7]; Table 4): 1250 µg/mL | growth (OD600) ([7]; Table 4, 0.02 mg/ml): + (+ OD600 <0.05) | growth (OD600) ([7]; Table 4, 0.04 mg/ml): + (+ OD600 <0.05) | growth (OD600) ([7]; Table 4, 0.08 mg/ml): + (+ OD600 <0.05) | growth (OD600) ([7]; Table 4, 0.16 mg/ml): + (+ OD600 <0.05) | growth (OD600) ([7]; Table 4, 0.31 mg/ml): + (+ OD600 <0.05) | growth (OD600) ([7]; Table 4, 0.63 mg/ml): + (+ OD600 <0.05) | growth (OD600) ([7]; Table 4, 2.50 mg/ml): − (− OD600 >0.05) | growth (OD600) ([7]; Table 4, 5 mg/ml): − (− OD600 >0.05) | growth (OD600) ([7]; Table 4, 10 mg/ml): − (− OD600 >0.05) | growth (OD600) ([7]; Table 4, 20 mg/ml): − (− OD600 >0.05) | visible growth ([7]; UV-4B 0.04 mg/ml): + | visible growth ([7]; UV-4B 0.08 mg/ml): + | visible growth ([7]; UV-4B 0.16 mg/ml): + | visible growth ([7]; UV-4B 0.31 mg/ml): + | visible growth ([7]; UV-4B 0.63 mg/ml): + | visible growth ([7]; UV-4B 2.50 mg/ml): − | visible growth ([7]; UV-4B 5 mg/ml): − | visible growth ([7]; UV-4B 10 mg/ml): − | visible growth ([7]; UV-4B 20 mg/ml): − | MIC ([8]; Table 3): 2500 µg/mL | MIC ([8]; Table 4): 625 µg/mL | growth (OD600) ([8]; Table 4, 0.02 mg/ml): + (+ OD600 <0.05) | growth (OD600) ([8]; Table 4, 0.04 mg/ml): + (+ OD600 <0.05) | growth (OD600) ([8]; Table 4, 0.08 mg/ml): + (+ OD600 <0.05) | growth (OD600) ([8]; Table 4, 0.16 mg/ml): + (+ OD600 <0.05) | growth (OD600) ([8]; Table 4, 0.31 mg/ml): + (+ OD600 <0.05) | growth (OD600) ([8]; Table 4, 0.63 mg/ml): − (− OD600 >0.05) | growth (OD600) ([8]; Table 4, 2.50 mg/ml): − (− OD600 >0.05) | growth (OD600) ([8]; Table 4, 5 mg/ml): − (− OD600 >0.05) | growth (OD600) ([8]; Table 4, 10 mg/ml): − (− OD600 >0.05) | growth (OD600) ([8]; Table 4, 20 mg/ml): − (− OD600 >0.05) | visible growth ([8]; UV-4B 0.02 mg/ml): + | visible growth ([8]; UV-4B 0.04 mg/ml): + | visible growth ([8]; UV-4B 0.08 mg/ml): + | visible growth ([8]; UV-4B 0.16 mg/ml): + | visible growth ([8]; UV-4B 0.31 mg/ml): + | visible growth ([8]; UV-4B 0.63 mg/ml): + | visible growth ([8]; UV-4B 2.50 mg/ml): − | visible growth ([8]; UV-4B 5 mg/ml): − | visible growth ([8]; UV-4B 10 mg/ml): − | MIC ([9]; Table 3): 10000 µg/mL | visible growth ([9]; UV-4B 0.04 mg/ml): + | visible growth ([9]; UV-4B 0.08 mg/ml): + | visible growth ([9]; UV-4B 0.16 mg/ml): + | visible growth ([9]; UV-4B 0.31 mg/ml): + | visible growth ([9]; UV-4B 0.63 mg/ml): + | visible growth ([9]; UV-4B 2.50 mg/ml): + | visible growth ([9]; UV-4B 5 mg/ml): + | visible growth ([9]; UV-4B 10 mg/ml): − | MBC ([10]; UV-4B): 20000 µg/mL | growth after re-inoculation on BHI agar ([10]; UV-4B 2.50 mg/ml): + | growth after re-inoculation on BHI agar ([10]; UV-4B 5.00 mg/ml): + | growth after re-inoculation on BHI agar ([10]; UV-4B 10 mg/ml): + | growth after re-inoculation on BHI agar ([10]; UV-4B 20 mg/ml): + | MBC ([11]; UV-4B): >20000 µg/mL | growth after re-inoculation on BHI agar ([11]; UV-4B 2.50 mg/ml): + | growth after re-inoculation on BHI agar ([11]; UV-4B 5.00 mg/ml): + | growth after re-inoculation on BHI agar ([11]; UV-4B 10 mg/ml): + | growth after re-inoculation on BHI agar ([11]; UV-4B 20 mg/ml): +

— US9623016B2, “Antibacterial compounds” (Emergent Virology LLC, priority 2013, dated 2017)
